Residues, ends and D or L forms follow the SMILES beside them. *: point of attachment. Cbz = O=C(OCc1ccccc1)*
Experiments:
NF-κB [1] = assay: NF-κB DNA binding activity (EMSA); assay type: cell-based, rat; conditions: BSp73AS, 6 hours; polyphenols 100 μM, MG-132 20 μM
Protocol: In order to determine the role of activated NF-κB in the regulation of apoptosis caused by the polyphenolic compound, the following assay was conducted. BSp73AS cells were cultured for 6 hours and Mia PACA-2 cells were cultured in the absence of serum or growth factors for 24 hours in the absence (controls) or presence of rutin, quercetin, trans-resveratrol, or genistein, each at 100 μM and 20 μM proteosome inhibitor MG-132. Nuclear proteins were isolated and analyzed for NF-κB DNA binding activity with electrophoretic mobility shift assay (EMSA). Specifically, aliquots of nuclear extracts with equal amount of protein, about 2 to about 10 μg, were mixed in 20 μl reactions with a buffer comprising 10 mM HEPES (pH 7.6), 50 mM KCl, 0.1 mM EDTA, 1 mM DTT, 10% (vol/vol) glycerol and 3 μg poly[d (I-C)]. After aliquots were equilibrated on ice for 5 minutes, binding reactions were stared by addition of 20-60,000 counts/min (20 fM) of ^32P-labeled DNA probes and allowed to proceed for 25-30 minutes at room temperature or up to 1 hour on ice. The oligonucleotide probe containing the κB binding motif (underlined) was annealed to the complementary oligonucleotide with a 5′-G overhang and end-labeled using Klenow DNA polymerase I. The samples were electrophoresed at room temperature in 0.5×TBE buffer (1×TBE 89 mM Tris base, 89 mM boric acid and 2 mM EDTA) on nondenaturing 4.5% polyacrylamide gel at 200 V. Gels were dried and directly analyzed in the PhosphorImager (Molecular Dynamics, Sunnyvale, Calif.). The experiment was repeated twice.

NF-κB [2] = assay: NF-κB DNA binding activity (EMSA / gel shift); assay type: cell-based, human; conditions: Mia PACA-2, 24 hours, no serum; polyphenols 100 μM, MG-132 20 μM
Protocol: In order to determine the role of activated NF-κB in the regulation of apoptosis caused by the polyphenolic compound, the following assay was conducted. BSp73AS cells were cultured for 6 hours and Mia PACA-2 cells were cultured in the absence of serum or growth factors for 24 hours in the absence (controls) or presence of rutin, quercetin, trans-resveratrol, or genistein, each at 100 μM and 20 μM proteosome inhibitor MG-132. Nuclear proteins were isolated and analyzed for NF-κB DNA binding activity with electrophoretic mobility shift assay (EMSA).
Specifically, aliquots of nuclear extracts with equal amount of protein, about 2 to about 10 μg, were mixed in 20 μl reactions with a buffer comprising 10 mM HEPES (pH 7.6), 50 mM KCl, 0.1 mM EDTA, 1 mM DTT, 10% (vol/vol) glycerol and 3 μg poly[d (I-C)]. After aliquots were equilibrated on ice for 5 minutes, binding reactions were stared by addition of 20-60,000 counts/min (20 fM) of ^32P-labeled DNA probes and allowed to proceed for 25-30 minutes at room temperature or up to 1 hour on ice. The oligonucleotide probe
containing the κB binding motif (underlined) was annealed to the complementary oligonucleotide with a 5′-G overhang and end-labeled using Klenow DNA polymerase I. The samples were electrophoresed at room temperature in 0.5×TBE buffer (1×TBE 89 mM Tris base, 89 mM boric acid and 2 mM EDTA) on nondenaturing 4.5% polyacrylamide gel at 200 V. Gels were dried and directly analyzed in the PhosphorImager (Molecular Dynamics, Sunnyvale, Calif.). The experiment was repeated twice.
To study the effects of combinations of DPI and polyphenolic compounds on serum-induced activation of NF-κB and protection from apoptosis, the following assay was conducted. Mia PACA-2 cells were cultured for 72 hours in the presence of serum with or without 100 μM trans-resveratrol, 15 μM DPI, a combination of trans-resveratrol, 100 μM genistein, or a combination of genistein and DPI. NF-κB binding activity was measured in nuclear extracts by gel shift assay as described above.
To determine the effects of LY29400 and DPI on NF-κB activation, Mia PACA-2 cells were cultured for 72 hours in the presence of serum and 15 μM DPI with or without 50 μM LY294002. NF-κB DNA binding activity was measured in nuclear extracts by gel shift assay as described above.

[3] = system: BSp73AS and Mia PACA-2 cells; assay: Caspase-3 activity and annexin staining with MG-132 (FIG. 14C); assay type: cell-based; conditions: MG-132 20 μM

Compound: CC(C)C[C@@H](C=O)NC(=O)[C@H](CC(C)C)NC(=O)[C@H](CC(C)C)NC(=O)OCc1ccccc1 [MG-132, reference compound] (Cbz-Leu-Leu-Leu-aldehyde)
- NF-κB activation (DNA binding) (NF-κB [1]): blocks NF-κB activation
- NF-κB activation (DNA binding) (NF-κB [2]): blocks NF-κB activation
- caspase-3 activity [3]: small increase in caspase-3 activity
- apoptosis (annexin staining) ([3]; polyphenols 100 μM): does not increase apoptosis rates to the same extent as trans-resveratrol

Source: patent US6953786B2, “Compositions comprising plant-derived polyphenolic compounds and inhibitors of reactive oxygen species and methods of using thereof” (The Regents of the University of California, priority 2002, dated 2005)
